The results in this text go back to patent US9624223B2, “Morphinan derivative” (THE KITASATO INSTITUTE, priority 2013, dated 2017).

Where only a bound is given, the exact number is not on record here.

One may read the Ki as a dissociation constant, usually derived from enzyme kinetics or from competition with a known ligand. The EC50 is the midpoint of the concentration-response curve. Low readings indicate greater potency, high ones weaker potency. The term Emax denotes the greatest response seen or fitted, relative to the assay's reference.

For one data set, the target named is T1, δ opioid receptor (Mus musculus, UniProt P32300).
T1 construct: In the assays for the μ and δ receptors, the mouse cerebrum membrane fraction was used; from tissue; host or cells: mouse cerebrum membrane fraction
Nature of the data set: Opioid receptor binding test, [3H]DPDPE, mouse cerebrum membrane fraction. The following applies: read-out: Binding affinity (Ki, nM) δ. As to the method: (§1) Binding affinities of the compounds of the present invention to the μ, δ, and κ opioid receptors were examined.
(§2) According to a previous report (J. Biol. Chem., 2001, 276:15409-15414), mouse cerebrum and guinea pig cerebellum membrane fractions were prepared. As radioactive ligands for the opioid receptors, [^3H]DAMGO (μ opioid receptor), [^3H]DPDPE (δ opioid receptor), and [3H]U69,593 (κ opioid receptor) were used. In the assays for the μ and δ receptors, the mouse cerebrum membrane fraction was used, and in the assay for the κ receptor, guinea pig cerebellum membrane fraction was used. For the nonspecific binding, DAMGO, DPDPE, and U69,593 were used at 1 μM for μ, δ and κ receptors, respectively. Each receptor membrane fraction, radioactive ligand, and a sample at various concentrations were reacted for a predetermined time, and after the B/F separation, amount of radioactivity remained on the filter was measured with a liquid scintillation counter, and binding inhibition ratio of the test compound (IC50 value) was calculated. Ki value was calculated by using the resulting IC50 value in accordance with the following equation. Ki=IC50/(1+L/Kd) L: Concentration of radioactive ligand used Kd: Kd value of radioactive ligand
(§3) Further, selectivity for the δ receptor among the opioid receptors was determined by calculating ratio of the Ki value for μ or κ, and the Ki value for δ (μ/δ or κ/δ).
(§4) • [D-Ala^2,N-MePhe^4, Gly-Ol]enkephalin DPDPE: • [D-Pen^2,D-Pen^5]enkephalin

In the next data set the target is T2, human opioid receptor κ (Homo sapiens, UniProt P41145).
T2 construct: host or cells: CHO cells
In words: Opioid receptor function test (Lance Ultra cAMP Kit), κ receptor. In kind it is cell-based. As to the method: (§5) Functional activities of the compounds of the present invention on the μ, δ, and κ opioid receptors were examined.
(§6) The test was performed by using Lance Ultra cAMP Kit (Perkin-Elmer) according the prescribed method. In the evaluation of the agonistic activity, each human opioid receptor (δ, μ, and κ, accession numbers and catalog numbers are mentioned below)-expressing CHO cells and 10 μM of a test compound were reacted for 30 minutes in the presence of forskolin in an assay buffer (1×HBSS, […], pH 7.4, […] (isobutylmethylxanthine), 7.5% BSA). The cAMP detection reagent included in the kit was then added, and 1 hour afterward, time decomposition fluorometry was performed by using EnVision plate reader (Perkin-Elmer). […] The Emax value was calculated as a ratio of the maximum reaction of the test compound based on the maximum reaction of each control drug, which was taken as 100%.
(§7) • (+)-4-[(αR)-α-(2S,5R)-4-Allyl-2,5-dimethyl-1-piperazinyl]-3-methoxybenzyl]-N,N-diethylbenzamide DAMGO: • [D-Ala^2,N-MePhe^4,Gly-ol]enkephalin U-69593: • (+)-(5α,7α,8β)-N-Methyl-N-[7-(1-pyrrolidinyl)-1-oxaspiro[4.5]dec-8-yl]benzeneacetamide Accession Numbers and Catalog Numbers δ: Catalog No. CT4607, accession No. NM_000911.2 μ: Catalog No. CT4605, accession No. NM_000914 κ: Catalog No. CT4606, accession No. NM_000912 (ChanTest Corporation)

For a further data set, the target named is T3, human opioid receptor μ (Homo sapiens, UniProt P35372).
T3 construct: host or cells: CHO cells
In words: Opioid receptor function test (Lance Ultra cAMP Kit), μ receptor. It is filed as cell-based. On the procedure:
as §5, §6, §7

In another data set the target is T4, hERG channel (Homo sapiens, UniProt Q12809).
T4 construct: expressed in transfected cells; host or cells: CHO-K1 cells
Nature of the data set: hERG potassium channel inhibition test (Qpatch16 patch clamp, CHO-K1 cells). It is filed as cell-based. Particulars: 10 μM; tail current inhibition, hERG-expressing CHO-K1 cells. As to the method: The test was performed with Qpatch16 (Sophion Biosciences Inc.) full automatic patch clamp system using hERG channel-stably expressing CHO-K1 cells. The hERG channel inhibitory action of each test compound was obtained on the basis of inhibitory action against a tail current induced by a test pulse at […] for 1 second applied after retention at +20 mV for 2 seconds. The test compound was dissolved in an extracellular fluid (137 mM NaCl, 4 mM KCl, 1.8 mM CaCl2, 1 mM MgCl2, 10 mM D(+)-glucose, 10 mM HEPES, pH 7.4), and the solution was […] at room temperature for 5 minutes. The inhibition ratio was obtained from the ratio of the tail current value observed after the compound was applied based on the tail current value observed before the compound was applied, which was taken as 100%. Cells were used for the test, where the cells show a peak tail current value not smaller than 100 pA, tail current run-down smaller than 30% of the initial current value, leak current smaller than 50% of the peak value of the tail current, and series resistance value lower than 20 MΩ.

A further data set has as its target T5, μ opioid receptor (Mus musculus, UniProt P42866).
T5 construct: In the assays for the μ and δ receptors, the mouse cerebrum membrane fraction was used; from tissue; host or cells: mouse cerebrum membrane fraction
In words: Opioid receptor binding test, [3H]DAMGO, mouse cerebrum membrane fraction. Particulars: ratio of Ki for μ to Ki for δ. On the procedure:
as §1, §2, §3, §4

The target in the next data set is T6, κ opioid receptor (Cavia porcellus, UniProt P41144).
T6 construct: in the assay for the κ receptor, guinea pig cerebellum membrane fraction was used; from tissue; host or cells: guinea pig cerebellum membrane fraction
Nature of the data set: Opioid receptor binding test, [3H]U69,593, guinea pig cerebellum membrane fraction. Particulars: ratio of Ki for κ to Ki for δ. On the procedure:
as §1, §2, §3

The next data set deals with T7, human opioid receptor δ (Homo sapiens, UniProt P41143).
T7 construct: host or cells: CHO cells
In words: Opioid receptor function test (Lance Ultra cAMP Kit), δ receptor. It is filed as cell-based. On the procedure:
as §5, §6, §7

T2 sequence (P41145 whole entry): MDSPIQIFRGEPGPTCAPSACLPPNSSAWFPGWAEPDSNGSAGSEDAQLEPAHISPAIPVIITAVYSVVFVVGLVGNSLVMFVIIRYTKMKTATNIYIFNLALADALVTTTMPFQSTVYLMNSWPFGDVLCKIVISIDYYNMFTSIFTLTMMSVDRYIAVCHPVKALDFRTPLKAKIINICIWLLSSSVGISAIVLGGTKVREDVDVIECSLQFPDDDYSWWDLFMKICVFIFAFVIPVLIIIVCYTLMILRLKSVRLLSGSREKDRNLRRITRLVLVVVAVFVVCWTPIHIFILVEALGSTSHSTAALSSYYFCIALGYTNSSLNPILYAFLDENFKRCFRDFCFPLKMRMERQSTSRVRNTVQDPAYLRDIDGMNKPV
T7 sequence (P41143 whole entry): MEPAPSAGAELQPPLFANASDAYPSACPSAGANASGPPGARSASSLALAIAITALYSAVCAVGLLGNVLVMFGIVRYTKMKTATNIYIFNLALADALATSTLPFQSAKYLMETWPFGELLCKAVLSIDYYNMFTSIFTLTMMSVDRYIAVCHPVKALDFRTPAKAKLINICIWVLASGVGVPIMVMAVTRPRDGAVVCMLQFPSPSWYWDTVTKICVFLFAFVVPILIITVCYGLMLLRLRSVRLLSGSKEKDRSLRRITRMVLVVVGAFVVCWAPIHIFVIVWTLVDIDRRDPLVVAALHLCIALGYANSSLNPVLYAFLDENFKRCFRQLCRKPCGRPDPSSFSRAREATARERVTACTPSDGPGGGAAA
T3 sequence (P35372 whole entry): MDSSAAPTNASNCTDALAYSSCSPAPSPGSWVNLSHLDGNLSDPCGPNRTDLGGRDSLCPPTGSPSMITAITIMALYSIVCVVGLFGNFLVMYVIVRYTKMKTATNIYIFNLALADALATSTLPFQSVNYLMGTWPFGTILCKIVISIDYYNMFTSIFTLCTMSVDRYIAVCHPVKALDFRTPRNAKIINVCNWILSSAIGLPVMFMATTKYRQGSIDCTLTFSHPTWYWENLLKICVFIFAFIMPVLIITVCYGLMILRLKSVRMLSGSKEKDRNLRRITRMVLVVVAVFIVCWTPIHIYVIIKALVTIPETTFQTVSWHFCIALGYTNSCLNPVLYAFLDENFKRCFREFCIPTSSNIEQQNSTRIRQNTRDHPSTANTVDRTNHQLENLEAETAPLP
T5 sequence (P42866 whole entry): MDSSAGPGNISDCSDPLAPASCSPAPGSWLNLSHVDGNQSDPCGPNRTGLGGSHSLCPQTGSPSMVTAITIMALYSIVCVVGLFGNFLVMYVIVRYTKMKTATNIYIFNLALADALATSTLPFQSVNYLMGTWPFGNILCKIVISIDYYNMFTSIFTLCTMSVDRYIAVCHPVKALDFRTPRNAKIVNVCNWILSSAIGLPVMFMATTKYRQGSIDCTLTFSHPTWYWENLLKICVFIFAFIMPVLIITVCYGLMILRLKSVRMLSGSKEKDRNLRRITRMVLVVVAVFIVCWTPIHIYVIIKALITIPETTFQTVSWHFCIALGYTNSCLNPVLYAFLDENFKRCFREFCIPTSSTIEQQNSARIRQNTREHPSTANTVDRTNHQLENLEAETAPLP
T6 sequence (P41144 whole entry): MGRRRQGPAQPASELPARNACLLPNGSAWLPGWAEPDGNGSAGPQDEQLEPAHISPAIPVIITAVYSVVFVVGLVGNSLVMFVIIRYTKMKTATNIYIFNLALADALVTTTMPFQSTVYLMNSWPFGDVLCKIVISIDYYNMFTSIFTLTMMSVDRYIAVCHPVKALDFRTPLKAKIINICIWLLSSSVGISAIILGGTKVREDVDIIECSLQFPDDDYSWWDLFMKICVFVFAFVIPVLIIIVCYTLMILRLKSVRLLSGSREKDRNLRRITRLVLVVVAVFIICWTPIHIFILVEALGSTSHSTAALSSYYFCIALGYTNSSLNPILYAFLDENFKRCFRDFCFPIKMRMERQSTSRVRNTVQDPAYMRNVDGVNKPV
T1 sequence (P32300 whole entry): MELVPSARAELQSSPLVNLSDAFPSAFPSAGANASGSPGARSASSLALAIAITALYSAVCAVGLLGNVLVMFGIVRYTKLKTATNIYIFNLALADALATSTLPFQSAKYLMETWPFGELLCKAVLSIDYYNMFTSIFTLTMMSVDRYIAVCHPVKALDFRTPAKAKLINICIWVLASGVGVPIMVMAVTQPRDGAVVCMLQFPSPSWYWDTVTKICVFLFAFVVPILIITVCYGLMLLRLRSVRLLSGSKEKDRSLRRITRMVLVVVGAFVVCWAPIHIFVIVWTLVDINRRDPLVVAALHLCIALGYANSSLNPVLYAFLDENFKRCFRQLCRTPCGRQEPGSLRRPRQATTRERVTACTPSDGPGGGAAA
T4 sequence (Q12809 whole entry): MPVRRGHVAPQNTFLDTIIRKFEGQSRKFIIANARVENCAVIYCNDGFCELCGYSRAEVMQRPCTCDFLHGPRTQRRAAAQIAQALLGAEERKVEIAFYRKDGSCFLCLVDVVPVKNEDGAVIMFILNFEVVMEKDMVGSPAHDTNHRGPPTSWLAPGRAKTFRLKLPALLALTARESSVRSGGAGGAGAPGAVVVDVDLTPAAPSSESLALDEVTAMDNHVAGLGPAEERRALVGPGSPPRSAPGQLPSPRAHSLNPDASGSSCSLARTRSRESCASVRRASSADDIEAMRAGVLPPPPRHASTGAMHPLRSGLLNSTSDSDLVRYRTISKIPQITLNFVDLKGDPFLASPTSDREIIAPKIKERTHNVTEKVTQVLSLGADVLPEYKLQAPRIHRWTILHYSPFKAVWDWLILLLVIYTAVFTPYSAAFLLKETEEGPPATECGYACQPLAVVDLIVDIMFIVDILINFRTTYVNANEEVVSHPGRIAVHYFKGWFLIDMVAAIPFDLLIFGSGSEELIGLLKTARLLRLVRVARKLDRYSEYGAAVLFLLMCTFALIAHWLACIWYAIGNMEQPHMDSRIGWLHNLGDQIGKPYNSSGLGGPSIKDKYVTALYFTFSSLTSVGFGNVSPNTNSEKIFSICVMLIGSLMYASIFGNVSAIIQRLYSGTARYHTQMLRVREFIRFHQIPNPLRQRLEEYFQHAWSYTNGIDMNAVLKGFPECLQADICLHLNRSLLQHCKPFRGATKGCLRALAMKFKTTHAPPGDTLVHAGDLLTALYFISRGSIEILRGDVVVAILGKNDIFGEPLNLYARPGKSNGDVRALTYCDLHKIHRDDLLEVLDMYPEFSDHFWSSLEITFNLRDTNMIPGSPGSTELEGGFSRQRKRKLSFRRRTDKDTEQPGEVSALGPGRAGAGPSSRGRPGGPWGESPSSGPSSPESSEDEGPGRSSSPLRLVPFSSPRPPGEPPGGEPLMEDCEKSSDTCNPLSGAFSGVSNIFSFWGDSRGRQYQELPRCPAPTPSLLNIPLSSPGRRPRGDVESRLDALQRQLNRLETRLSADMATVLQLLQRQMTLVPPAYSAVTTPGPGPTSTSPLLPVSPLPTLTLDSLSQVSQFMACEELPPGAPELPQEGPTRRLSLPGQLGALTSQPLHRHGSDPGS

As to `NCCN1CC[C@@]23c4cc(O)ccc4C[C@@H]1[C@]21CC[C@@H]2[C@H]3[C@@H](CN2C(=O)c2ccccc2)C1` [Compound 13, [(1S,3aR,5aS,6R,11bR,11cS)-14-(2-aminoethyl)-10-hydroxy-1,2,3a,4,5,6,7,11c-octahydro-3H-6,11b-(epiminoethano)-1,5a-methanonaphtho[1,2-e]indol-3-yl](phenyl)methanone], the Ki at δ opioid receptor was below 10 nM. Moreover, the EC50 at human opioid receptor κ (agonistic activity, human κ receptor-expressing CHO cells, cAMP, forskolin) is above 100 nM; on human opioid receptor μ (agonistic activity, human μ receptor-expressing CHO cells, cAMP, forskolin), above 100 nM; on human opioid receptor δ (agonistic activity, human δ receptor-expressing CHO cells, cAMP, forskolin), below 10 nM. Besides, the maximum response (Emax) was 12% on human opioid receptor κ (maximum reaction relative to U-69593 taken as 100%), 39% at human opioid receptor μ (maximum reaction relative to DAMGO taken as 100%) and 101% on human opioid receptor δ (maximum reaction relative to SNC 80 taken as 100%). Moreover, at hERG channel, the “HERG channel inhibitory action” value was below 50%. Besides, the “δ-receptor selectivity (Ki value ratio) μ/δ” value at μ opioid receptor is given as above 10. Further, the “δ-receptor selectivity (Ki value ratio) κ/δ” value at κ opioid receptor is given as above 10.
